Literature values in patent publication US20050148593A1, “Compounds, compositions, and methods” (priority 2003, published 2005).

system: A549 cells; conditions: data provided by National Cancer Institute, Developmental Therapeutic Program

Structure (SMILES)	GI50 [nM]
O=c1[nH]cc(F)c(=O)[nH]1 [5-fluorouracil]	1000
COc1cccc2c1C(=O)c1c(O)c3c(c(O)c1C2=O)C[C@@](O)(C(=O)CO)C[C@@H]3O[C@H]1C[C@H](N)[C@H](O)[C@H](C)O1 [doxorubicin]	63
NC(=O)NO [hydroxyurea]	500000
CC(=O)O[C@H]1C(=O)[C@@]2(C)[C@H]([C@H](OC(=O)c3ccccc3)[C@]3(O)C[C@H](OC(=O)[C@H](O)[C@@H](NC(=O)c4ccccc4)c4ccccc4)C(C)=C1C3(C)C)[C@]1(OC(C)=O)CO[C@@H]1C[C@@H]2O [paclitaxel]	4
